Assay [1] concerns the target T1, P2X7 (Homo sapiens, UniProt Q99572).
T1 sequence (Q99572 1-595): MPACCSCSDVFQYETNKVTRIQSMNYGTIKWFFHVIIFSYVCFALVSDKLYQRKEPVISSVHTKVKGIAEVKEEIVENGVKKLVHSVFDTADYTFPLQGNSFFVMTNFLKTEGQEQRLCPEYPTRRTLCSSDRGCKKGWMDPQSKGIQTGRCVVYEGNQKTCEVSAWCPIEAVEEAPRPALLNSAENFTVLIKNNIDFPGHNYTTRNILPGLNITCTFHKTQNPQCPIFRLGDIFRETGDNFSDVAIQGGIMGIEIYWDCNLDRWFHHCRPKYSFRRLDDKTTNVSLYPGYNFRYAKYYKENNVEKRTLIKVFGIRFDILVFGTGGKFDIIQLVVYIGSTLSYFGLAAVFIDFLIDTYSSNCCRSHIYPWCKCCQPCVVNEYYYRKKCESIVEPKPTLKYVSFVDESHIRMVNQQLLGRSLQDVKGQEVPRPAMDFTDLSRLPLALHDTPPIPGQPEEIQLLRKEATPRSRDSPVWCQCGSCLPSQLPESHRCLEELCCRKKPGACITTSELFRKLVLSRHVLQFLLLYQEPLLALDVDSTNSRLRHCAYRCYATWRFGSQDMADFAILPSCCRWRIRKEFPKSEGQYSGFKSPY
As to the kind of experiment: YO-PRO-1 dye uptake assay in U373 cells stably expressing P2X7. The class given is cell-based. Also noted: The complete open reading frame of human P2X7 was amplified from Incyte clone 148057; expressed in transfected cells. The note with it: dye uptake through P2X7, U373 cells, 300 μM BzATP, 5 μM YO-PRO-1, test compounds 30 nM to 3 μM. The essentials:
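U373 cells stably expressing human P2X7 preincubated 20 min at 37° C. with compound (30 nM to 3 μM) in Mg/Ca-free HBSS. YO-PRO-1 (5 μM final) and BzATP (300 μM final) then added for 1.5 h at 37° C.; dye-uptake fluorescence compared with compound-free control.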

In assay [2] the target is T1, P2X7. As to the kind of experiment: BzATP-induced IL-1β secretion from human monocytes/macrophages activated by beta amyloid peptide 1-42 (ELISA). The class given is cell-based. Set-up: Monocytes were isolated from peripheral blood mononuclear cells (PBMCs); endogenous in cells; host or cells: primary monocytes isolated from peripheral blood mononuclear cells. On the procedure:
Cell isolation: Monocytes were isolated from peripheral blood mononuclear cells (PBMCs) as follows. Whole blood was layered directly onto Histopak 1077-1 columns (Sigma Biochemicals) and centrifuged at 800×g for 15 minutes. The PBMC band of cells was removed to a fresh 50 ml culture tube and diluted 1:1 with wash buffer (Phosphate buffered saline, pH 7.4 containing 2 mM EDTA and 5 mg/ml BSA) followed by centrifugation at 800×g for 5 minutes. Cells were then washed by sequential resuspension of the cell pellet in wash buffer and centrifugation at 600×g for 5 minutes. The wash process was repeated until the supernatant was clear of contaminating platelets (5 to 6 washes). Monocytes were then purified from the PBMCs by negative selection using a monocyte isolation kit (Miltenyi Biotec, Inc) that contains antibodies to non-monocytic cells, running the cells over a magnetic column to remove antibody-bound cells, and collecting the flow through volume of monocytes. Monocytes were washed once with wash buffer and seeded at 10E5 cells per well in 100 μl serum-free RPMI 1640 in 96-well plates and incubated for 1 hour at 37° C. in a 5% CO2/95% humidified tissue culture incubator. After 1 hour, the medium was replaced with 100 μl complete culture medium (RPMI 1640, 10% human serum-type AB (heat inactivated), 25 mM HEPES, 2 mM glutamine, 50 U/ml each of penicillin and streptomycin) and incubated overnight (16 hours). Dosing regimen: The next day, the culture medium was replaced with 100 μl fresh complete culture medium in the absence or presence of human beta amyloid 1-42 peptide (5 μM) and incubated at 37° C. in a 5% CO2/95% humidified tissue culture incubator for 5 hours. Medium was then removed and discarded. Each well was washed once with Hanks buffered saline (HBSS) containing 1 mM CaCl2 followed by the addition of 80 μl of HBSS/CaCl2. […] Medium was then removed to new 96-well plates for storage at −70° C. until the IL-1β content was quantitated by ELISA (from R&D Systems). The cells were washed once with HBSS/CaCl2 followed by lysing the cells with 100 μl ice cold lysis buffer (100 mM Tris, pH 7.6, 1% triton X-100, and 1 tablet per 30 ml Complete TM protease inhibitor from Roche Biochemicals, Inc). Cell lysates were stored at −70° C. until the IL-1β was quantitated by ELISA. The results thus obtained for percent inhibition of BzATP-induced IL-1β secretion using a few of the P2X-7 compounds of the present invention are summarized in Table 7.

A further assay has as its system Wistar derived male rats. As to the kind of experiment: 2,4-dinitrobenzenesulfonic acid (DNBS) induced distal colitis. The class given is in vivo, rat. Particulars: 30 mg/kg×7, oral administration.
For assay [3], the system named is Long Evans derived male rats. Briefly: carrageenan induced paw edema. The note with it: 150 mg/kg, PO. In kind it is in vivo, rat.
The next assay concerns Balb/cByJ mice. As to the kind of experiment: monoclonal antibody (mAb) type II collagen induced arthritis. The class given is in vivo, mouse. The note with it: 3 mg/kg×3, PO. As to the method:
This Example illustrates the anti-inflammatory activity of the compounds of this invention using a model of Balb/c mice subjected to monoclonal antibody (mAb) type II collagen induced arthritis.
A compound of this invention is dissolved in vehicle of 2% Tween 80/0.9% NaCl, at doses of 50 or 30 and administered orally (50 mg/kg) or intraperitoneally at 30 mg/kg once daily for 3 consecutive days after monoclonal antibody of collagen was injected. Dosing volume is 20 ml/kg.
Groups of 5 Balb/cByJ mice strain, 6-8 weeks of age, are used for the induction of arthritis by monoclonal antibodies (mAbs) responding to type II collagen, plus lipopolysaccharide (LPS). The animals are administered intravenously with a combination of 4 different mAbs (D8, F10, DI-2G and A2) in total of 4 mg/mouse at day 0, and followed by intravenous 25 μg of LPS 72 hours later (day 3). From day 3, one hour after LPS administration, ML-659 at 50 mg/kg (PO) or 30 mg/kg (IP) and vehicle (2% Tween 80/0.9% NaCl, PO) as well as the positive control indomethacin, 3 mg/kg (PO) are administrated once daily for 3 consecutive days. A plethysmometer (Ugo Basile Cat # 7150) with water cell (12 mm diameter) is used for the measurement of increase in volume of the two hind paws at day 0, 5, 7, 10, 14, and 17. The percent inhibition of increase in volume is calculated by the following formula: Inhibition (%): [1−(Tn−To)/(Cn−Co)]×100 Where: Co (Cn): volume of day 0 (day n) in vehicle control To (Tn): volume of day 0 (day n) in test compound-treated group The reduction of both of two hind paws edema by more than 30% is considered significant.

[4] abbreviates: BzATP (300 μM)-induced IL-1β secretion, human monocytes primed with beta amyloid 1-42 (5 μM), read-out: IC50.

The results in this text go back to patent publication US7741493B2, “Heterocyclic compounds as P2X7 ion channel blockers” (Aventis Pharmaceuticals Inc., priority 2003, dated 2010).

Each structure is given as a SMILES string. Where “and” joins values, the source holds several entries; their conditions need not be identical. Equal values may be shown once. Where a name gives a salt, the structure may show the parent alone.

Regarding `Fc1cccc(CNC2=N[C@@H](c3cccc(F)c3)[C@@H](c3cccc(F)c3)N2)c1` [[cis-4,5-bis-(3-Fluorophenyl)-4,5-dihydro-1H-imidazol-2-yl]-(3-fluorobenzyl)amine hydrochloride], the IC50 stood at 42 nM at P2X7 [1] (read-out: IC50) and 1280 nM against P2X7 [2]. Take `O=C(O)c1cc(/N=N/c2ccc(S(=O)(=O)Nc3ccccn3)cc2)ccc1O` [sulfasalazine]: the “inhibition of the inflammation” value in the assay on Wistar derived male rats was found to be 37%. In the case of `CC(=O)Oc1ccccc1C(=O)O` [aspirin], the “inhibition of inflammation (hind paw edema)” value in assay [3] is 38%.

For the compound `Fc1ccc(CNC2=NC(c3ccccc3)C(c3ccccc3)N2)cc1` (centres unmarked) [hydrochloride], on P2X7 [2] (setting [4]), the IC50 turned out to be 693 nM.

Turning to `CC(C)(CC1=NC(c2ccccc2)C(c2ccccc2)N1)c1ccccc1` (centres unmarked) [trifluoroacetate], at P2X7 [2] (setting [4]), the IC50 stood at 178 nM.

On to `Fc1ccc(CC2=N[C@@H](c3ccccc3)[C@@H](c3ccccc3)N2)cc1Cl` [trifluoroacetate], for which the results for the IC50 on P2X7 [1] (read-out: IC50) and at P2X7 [2] (setting [4]) were 13 nM and 157 nM, respectively. As for `Clc1ccccc1CC1=N[C@H](c2ccccc2)[C@H](c2ccccc2)N1` [cis-4,5-diphenyl-2-(2-chlorobenzyl)-4,5-dihydro-1H-imidazole], at P2X7 [1] (read-out: IC50), the IC50 is 163 nM and 160 nM. Turning to `C[C@@H](C1=N[C@@H](c2ccccc2)[C@@H](c2ccccc2)N1)c1ccccc1` [trifluoroacetate], on P2X7 [1] (read-out: IC50), the IC50 stood at 108 nM.

With `CC(Cc1ccccc1)C1=N[C@@H](c2ccccc2)[C@@H](c2ccccc2)N1` (relative stereo) [2-[1-Methyl-2-phenylethyl]-cis-4,5-diphenyl-4,5-dihydro-1H-imidazole trifluoroacetate], the IC50 on P2X7 [1] (read-out: IC50) came to 570 nM. On to `CC(C1=N[C@@H](c2ccccc2)[C@@H](c2ccccc2)N1)c1ccc(Cl)cc1` (relative stereo) [trifluoroacetate], for which, on P2X7 [1] (read-out: IC50), the IC50 was 423 nM.

As to `Fc1ccc(CNC2=N[C@@H](c3cccc(Cl)c3)[C@@H](c3cccc(Cl)c3)N2)cc1F` [[cis-4,5-bis-(3-Chlorophenyl)-4,5-dihydro-1H-imidazol-2-yl]-(3,4-difluorobenzyl)-amine hydrochloride], the IC50 at P2X7 [1] (read-out: IC50) came to 247 nM.

For the compound `Fc1ccc(CC2=N[C@@H](c3ccccc3)[C@@H](c3ccccc3)N2)c(Cl)c1` [trifluoroacetate], the IC50 on P2X7 [1] (read-out: IC50) came out at 120 nM. `c1ccc(CCCCC2=N[C@H](c3ccccc3)[C@H](c3ccccc3)N2)cc1` [2-[4-phenyl-butyl]-cis-4,5-diphenyl-4,5-dihydro-1H-imidazole trifluoroacetate] came in with an IC50 against P2X7 [1] (IC50 (nM)) of 610 nM. For the compound `Fc1cccc(CCC2=N[C@@H](c3cccc(F)c3)[C@@H](c3cccc(F)c3)N2)c1` [2-[2-(3-Fluorophenyl)ethyl]-cis-4,5-bis-(3-fluorophenyl)-4,5-dihydro-1H-imidazole trifluoroacetate], on P2X7 [1] (read-out: IC50), the concentration for half-maximal inhibition (IC50) turned out to be 79 nM. For the compound `Cc1ccccc1[C@H]1NC(NCc2ccc(F)c(F)c2)=N[C@H]1c1ccccc1C` [[cis-4,5-bis-(2-Methylphenyl)-4,5-dihydro-1H-imidazol-2-yl]-(3,4-difluorobenzyl)-amine hydrochloride], the IC50 on P2X7 [1] (read-out: IC50) is 77 nM. On to `Cc1cccc([C@H]2NC(NCc3ccc(F)c(F)c3)=N[C@H]2c2cccc(C)c2)c1` [[cis-4,5-bis-(3-Methylphenyl)-4,5-dihydro-1H-imidazol-2-yl]-(3,4-difluorobenzyl)-amine hydrochloride], for which the IC50 on P2X7 [1] (read-out: IC50) was determined as 118 nM. Still for that read-out and setting: the figure for `Fc1cccc([C@H]2NC(Cc3ccc(F)cc3F)=N[C@H]2c2cccc(F)c2)c1` [2-(2,4-Difluorobenzyl)-cis-4,5-bis-(3-fluorophenyl)-4,5-dihydro-1H-imidazole trifluoroacetate] is 409 nM; for `C#CC(CCC)OCC1=N[C@@](C)(c2ccccc2)[C@@H](c2ccccc2)N1` (relative stereo) [2-[(1-Ethynyl-1-butoxy)methyl]-cis-4,5-diphenyl-4-methyl-4,5-dihydro-1H-imidazole hydrochloride] it is 739 nM. Same read-out and setting: the figure for `C[C@H](C1=N[C@@H](c2ccccc2)[C@@H](c2ccccc2)N1)c1ccccc1` [trifluoroacetate] is 110 nM. For `COc1ccc2c(c1)c(CC(=O)O)c(C)n2C(=O)c1ccc(Cl)cc1` [indomethacin], the “effect relative to the vehicle treated group (hind paws edema)” value with Balb/cByJ mice (day 5) stood at 63%; in the assay with Balb/cByJ mice (day 7) it was 70%; in the assay on Balb/cByJ mice (day 10), 80%; with Balb/cByJ mice (day 14), 88%; in the assay on Balb/cByJ mice (day 17), 85%.
